Data reported in patent publication US8802664B2 (Bioproject, priority 2010, dated 2014).
Read-outs that look alike come from different tables or passages of the source.

Target: T1, human H4 receptor (Homo sapiens, UniProt Q9H3N8)
T1 construct: expressed in transfected cells
Test: [3H]Histamine binding on membranes of CHO cells stably expressing human H4 receptor
Outline: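 Filter-bound counts (liquid scintillation) gave H4 binding. Incubation used 20 μg membrane protein/well in Tris/HCl 50 mM plus EDTA 0.5 mM at pH 7.4, and 10 μM JNJ 7777120 set nonspecific binding. Filtration on GF/B pretreated with polyethyleneimine stopped the reaction.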

T1 sequence (Q9H3N8 whole entry): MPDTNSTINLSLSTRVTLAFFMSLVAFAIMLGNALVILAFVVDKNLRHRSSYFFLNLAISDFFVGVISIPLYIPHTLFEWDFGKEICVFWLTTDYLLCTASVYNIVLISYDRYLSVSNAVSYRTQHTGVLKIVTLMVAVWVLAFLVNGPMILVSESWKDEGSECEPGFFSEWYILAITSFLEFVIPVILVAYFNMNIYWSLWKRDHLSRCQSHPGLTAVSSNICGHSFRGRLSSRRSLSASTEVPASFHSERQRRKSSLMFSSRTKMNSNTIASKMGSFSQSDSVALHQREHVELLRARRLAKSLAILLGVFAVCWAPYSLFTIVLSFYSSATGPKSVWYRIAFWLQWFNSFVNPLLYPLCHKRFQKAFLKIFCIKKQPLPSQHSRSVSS

SMILES | Ki or IC50 activity class [nM] | other results
CN1CCC(OC(c2cccc(N3CCCC3CN)c2)c2nc3ccccc3s2)CC1 (centres unmarked) [Example 482] | < 30 | 
CN1CCC(OC(c2cccc(OC3CCNCC3)c2)c2nc3ccccc3s2)CC1 (centres unmarked) [Example 415, 2-{(1-methylpiperidin-4-yloxy)[3-(piperidin-4-yloxy)phenyl]methyl}benzothiazole] | < 300 | 
CN1CCC(OC(c2nc3ccccc3[nH]2)c2cc(C#CCCCCN=C(c3ccccc3)c3ccccc3O)ccc2F)CC1 (centres unmarked) [Example 562, 2-[(6-{3-[(1H-benzimidazol-2-yl)(1-methylpiperidin-4-yloxy)methyl]-4-fluorophenyl]hex-5-ynylimino)phenylmethyl}phenol] | < 30 | 
CCOC(=O)n1c(C(OC2CCN(C)CC2)c2cc(OC(F)(F)F)ccc2F)nc2ccccc21 (centres unmarked) [Example 553] | < 1000 | 
CN1CCC(OC(c2cccc(OCCC(F)(F)F)c2)c2nc3ccccc3s2)CC1 (centres unmarked) [Example 178, 2-{(1-methylpiperidin-4-yloxy)[3-(3,3,3-trifluoro-propoxy)phenyl]methyl}benzothiazole] | < 300 | 
CN1CCC(OC(c2cccc(C=C3NC(=N)NC3=O)c2)c2nc3ccccc3[nH]2)CC1 (centres unmarked) [Example 505, 5-{3-[(1H-benzimidazol-2-yl)(1-methylpiperidin-4-yloxy)methyl]benzylidene}-2-iminoimidazolidin-4-one] | < 1000 | 
CN1CCC(OC(c2cccc(SCC3(CCO)CC3)c2)c2nc3ccccc3s2)CC1 (centres unmarked) [Example 268, 2-(1-{3-[benzothiazol-2-yl(1-methylpiperidin-4-yloxy)methyl]phenylsulfanylmethyl}cyclopropyl)ethanol] | < 300 | 
CN1CCC(NC(c2ccccc2)c2nc3ccccc3s2)CC1 (centres unmarked) [Example 9, (benzothiazol-2-yl-phenylmethyl)(1-methylpiperidin-4-yl)amine] | < 30 | 
CN1CCC(OC(c2cccc(-c3cccc(N)c3)c2)c2nc3ccccc3[nH]2)CC1 (centres unmarked) [Example 87, 3′-[(1H-benzimidazol-2-yl)(1-methylpiperidin-4-yloxy)methyl]biphenyl-3-ylamine] | < 300 | 
CN1CCC(COC(c2cccc(Br)c2)c2nc3ccccc3s2)C1 (centres unmarked) [Example 465] | < 30 | 
CN1CCC(OC(c2cccc(SCCNC(=N)NC(=O)C(C)(C)C)c2)c2nc3ccccc3[nH]2)CC1 (centres unmarked) [Example 446] |  | Ki (read-out: Activity (Ki or IC50)): < 300 nM
CN1CCC(OC(c2cccc(SCC3=NCCN3)c2)c2nc3cc(F)ccc3[nH]2)CC1 (centres unmarked) [Example 463] | < 1000 | 
CN1CCC(OC(c2cccc(C#CCCCCNC(=N)N)c2)c2nc3ccccc3s2)CC1 (centres unmarked) [Example 342, N-(6-{3-[benzothiazol-2-yl(1-methylpiperidin-4-yloxy)methyl]phenyl}hex-5-ynyl)guanidine] | < 300 | 
CN1CCC(OC(c2cccc(SCCN)c2)c2nc3ccccc3s2)CC1 (centres unmarked) [Example 269, 2-{3-[benzothiazol-2-yl(1-methylpiperidin-4-yloxy)methyl]phenylsulfanyl}ethylamine] | < 30 | 
CN1CCC(OC(c2cccc(C(F)(F)F)c2)c2nc3ccccc3s2)CC1 (centres unmarked) [Example 31, 2-[(1-methylpiperidin-4-yloxy)(3-trifluoromethylphenyl)methyl]benzothiazole] | < 30 | 
CCSc1cccc(C(OC2CCN(C)CC2)c2nc3ccccc3s2)c1 (centres unmarked) [Example 159, 2-[(3-ethylsulfanylphenyl)(1-methylpiperidin-4-yloxy)methyl]benzothiazole] | < 30 | 
CN1CCC(OC(c2cccc(OCC3CCNCC3)c2)c2nc3ccccc3s2)CC1 (centres unmarked) [Example 377, 2-{(1-methylpiperidin-4-yloxy)[3-(piperidin-4-ylmethoxy)phenyl]methyl}benzothiazole] | < 300 | 
CN1CCC(NC(c2cccc(OCc3ccccc3)c2)c2nc3ccccc3s2)CC1 (centres unmarked) [Example 101, [benzothiazol-2-yl(3-benzyloxyphenyl)methyl](1-methylpiperidin-4-yl)amine] | < 30 | 
CN1CCC(OC(c2nc3ccccc3s2)c2c(F)cc(Cl)cc2F)CC1 (centres unmarked) [Example 532] | < 300 | 
CN1CCC(OC(c2cccc(SCC=CCN)c2)c2nc3ccccc3[nH]2)CC1 (centres unmarked) [Example 474] |  | Ki or IC50 activity class (human H4 receptor, evaluated in the GTPγ[35S] assay or in the [3H]histamine binding assay (not stated which per compound), Ki or IC50 class): < 30 nM
COC(=O)CC1(CSc2cccc(C(OC3CCN(C)CC3)c3nc4ccccc4s3)c2)CC1 (centres unmarked) [Example 239, (1-{3-[benzothiazol-2-yl(1-methylpiperidin-4-yloxy)methyl]phenylsulfanylmethyl}-cyclopropyl)acetic acid methyl ester] | < 1000 | 
CN1CCC(OC(c2cccc(OCCCCCN)c2)c2nc3ccccc3s2)CC1 (centres unmarked) [Example 371, 5-{3-[benzothiazol-2-yl(1-methylpiperidin-4-yloxy)methyl]phenoxy}pentylamine] | < 30 | 

SMILES | Ki or IC50 activity class [nM] | other results
CCOCCOc1cccc(C(NC2CCN(C)CC2)c2nc3ccccc3[nH]2)c1 (centres unmarked) [Example 134, {(1H-benzimidazol-2-yl)[3-(2-ethoxyethoxy)phenyl]methyl}(1-methylpiperidin-4-yl)amine] | < 300 | 
CN1CCC(OC(c2cccc(NCc3ccccc3)c2)c2nc3ccccc3s2)CC1 (centres unmarked) [Example 234, {3-[benzothiazol-2-yl(1-methylpiperidin-4-yloxy)methyl]phenyl}benzyl-amine] | < 300 | 
CN1CCC(OC(c2cccc(S(C)(=O)=O)c2)c2nc3ccccc3s2)CC1 (centres unmarked) [Example 203, 2-[(3-methanesulfonylphenyl)(1-methylpiperidin-4-yloxy)methyl]benzothiazole] | < 1000 | 
CN1CCC(OC(c2nc3ccccc3[nH]2)c2ccc(F)cc2F)CC1 (centres unmarked) [Example 221, 2-[(2,4-difluorophenyl)(1-methylpiperidin-4-yloxy)methyl]-1H-benzimidazole] | < 300 | 
CN1CCC(OC(c2cccc(Oc3ccccc3)c2)c2nc3ccccc3s2)CC1 (centres unmarked) [Example 28, 2-[(1-methylpiperidin-4-yloxy)(3-phenoxy-phenyl)methyl]benzothiazole] | < 300 | 
CN1CCC(OC(c2cccc(C#CCCCn3cccn3)c2)c2nc3ccccc3[nH]2)CC1 (centres unmarked) [Example 410, 2-{(1-methylpiperidin-4-yloxy)[3-(5-pyrazol-1-yl-pent-1-ynyl)phenyl]methyl}-1H-benzimidazole] | < 300 | 
CN1CCC(OC(c2cccc(N3CC4CN(C)CC4C3)c2)c2nc3ccccc3s2)CC1 (centres unmarked) [Example 485] | < 1000 | 
CN1CCC(OC(c2cccc(CCCCN)c2)c2nc3ccccc3[nH]2)CC1 (centres unmarked) [Example 293, 4-{3-[(1H-benzimidazol-2-yl)(1-methylpiperidin-4-yloxy)methyl]phenyl}butylamine] | < 300 | 
CN1CCC(OC(c2cccc(OCc3ccncc3)c2)c2nc3ccccc3s2)CC1 (centres unmarked) [Example 265, 2-{(1-methylpiperidin-4-yloxy)[3-(pyridin-4-ylmethoxy)phenyl]methyl}benzothiazole] | < 300 | 
CN1CCC(OC(c2cccc(N3CCC(F)C3)c2)c2nc3ccccc3s2)CC1 (centres unmarked) [Example 430, 2-[[3-(3-fluoropyrrolidin-1-yl)phenyl](1-methylpiperidin-4-yloxy)methyl]benzothiazole] | < 30 | 
CN1CCC(OC(c2cccc(C3CCN(C(=N)N)CC3)c2)c2nc3ccccc3[nH]2)CC1 (centres unmarked) [Example 394, 4-{3-[(1H-benzimidazol-2-yl)(1-methylpiperidin-4-yloxy)methyl]phenyl}piperidine-1-carboxamidine] | < 1000 | 
CN1CCC(OC(c2cccc(OCc3cccc([N+](=O)[O-])c3)c2)c2nc3ccccc3s2)CC1 (centres unmarked) [Example 196, 2-{(1-methylpiperidin-4-yloxy)[3-(3-nitro-benzyloxy)phenyl]methyl}benzothiazole] | < 30 | 
Fc1ccc(OC(F)(F)F)cc1C(OCC1CNC1)c1nc2ccccc2[nH]1 (centres unmarked) [Example 515] | < 1000 | 
CN1CCC(OC(c2nc3ccccc3[nH]2)c2cc(OCCF)ccc2F)CC1 (centres unmarked) [Example 489] | < 30 | 
CN1CCC(OC(c2cccc(OCCCCN3CCCCC3)c2)c2nc3ccccc3[nH]2)CC1 (centres unmarked) [Example 333, 2-{(1-methylpiperidin-4-yloxy)[3-(4-piperidin-1-yl-butoxy)phenyl]methyl}-1H-benzimidazole] | < 300 | 
CN1CCC(OC(c2cccc(CCCNC(=O)OC(C)(C)C)c2)c2nc3ccccc3[nH]2)CC1 (centres unmarked) [Example 313, N-tert-butoxycarbonyl-N′-(3-{3-[(1H-benzimidazol-2-yl)(1-methylpiperidin-4-yloxy)methyl]phenyl}propyl)amine] | < 300 | 
CN1CCC(OC(c2cccc(C#CCCNC(=N)N)c2)c2nc3ccccc3s2)CC1 (centres unmarked) [Example 372, N-(4-{3-[benzothiazol-2-yl(1-methylpiperidin-4-yloxy)methyl]phenyl}but-3-ynyl)guanidine] | < 30 | 
CN1CCC(OC(c2cccc(OCCCCn3nccn3)c2)c2nc3ccccc3s2)CC1 (centres unmarked) [Example 315, 2-{(1-methylpiperidin-4-yloxy)[3-(4-[1,2,3]triazol-2-yl-butoxy)phenyl]methyl}benzothiazole] | < 1000 | 
CCOC(=O)c1cccc(C(OC2CCN(C)CC2)c2nc3ccccc3s2)c1 (centres unmarked) [Example 206, 3-[benzothiazol-2-yl(1-methylpiperidin-4-yloxy)methyl]benzoic acid ethyl ester] | < 300 | 
CC(C)Oc1cccc(C(OC2CCN(C)CC2)c2nc3ccccc3s2)c1 (centres unmarked) [Example 55, 2-[(3-isopropoxyphenyl)(1-methylpiperidin-4-yloxy)methyl]benzothiazole] | < 30 | 
CN1CCC(OC(c2cccc(CCCCCCNC(=N)N)c2)c2nc3ccccc3s2)CC1 (centres unmarked) [Example 363, N-(6-{3-[benzothiazol-2-yl(1-methylpiperidin-4-yloxy)methyl]phenyl}hexyl)guanidine] | < 300 | 
CN1CCC(COC(c2cccc(Br)c2)c2nc3ccccc3s2)C1 (single isomer, unassigned) [Example 464] | < 30 | 
